Values joined by “and” are separate entries in the source; they are usually repeats but may differ in a detail not shown here. Equal values may be shown once. Inconclusive results and toxic doses are left out.
System: L1210 leukemia ip in BDF1 mice, survival T/C
Assay: NCI In Vivo Anticancer Drug Screen. Data for tumor model L1210 Leukemia (intraperitoneal) in B6D2F1 (BDF1) mice
Conditions: endpoint: mean survival time, higher = longer survival
How it was run: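 In this screen, tumor-bearing mice given compound are compared to those given vehicle, and their survival values are reported as a treated-to-control quotient.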

SMILES: C1CN1c1nc(N2CC2)nc(N2CC2)n1
- T/C (dose: 0.05 mg/kg/injection, schedule: Q01DX009 (ip), vehicle: saline): 94 % of control
- T/C (dose: 0.06 mg/kg/injection, schedule: Q01DX009 (ip), vehicle: saline): 95 % of control
- T/C (dose: 0.06 mg/kg/injection, schedule: Q01DX Z (ip), vehicle: saline): 97 % of control
- T/C (dose: 0.1 mg/kg/injection, schedule: Q01DX009 (ip), vehicle: saline): 105 % of control
- T/C (dose: 0.12 mg/kg/injection, schedule: Q01DX005 (ip), vehicle: saline): 115 % of control
- T/C (dose: 0.12 mg/kg/injection, schedule: Q01DX009 (ip), vehicle: saline): 107 % of control
- T/C (dose: 0.12 mg/kg/injection, schedule: Q01DX009 (sc), vehicle: saline): 101 % of control
- T/C (dose: 0.12 mg/kg/injection, schedule: Q01DX010 (ip), vehicle: saline): 110 % of control
- T/C (dose: 0.12 mg/kg/injection, schedule: Q01DX Z (ip), vehicle: carboxymethylcellulose (CMC)): 113 % of control
- T/C (dose: 0.12 mg/kg/injection, schedule: Q01DX Z (ip), vehicle: saline): 118 % of control
- T/C (dose: 0.13 mg/kg/injection, schedule: Q01DX009 (ip), vehicle: saline): 110 % of control
- T/C (dose: 0.13 mg/kg/injection, schedule: Q01DX010 (oral), vehicle: carboxymethylcellulose (CMC)): 119 % of control
- T/C (dose: 0.16 mg/kg/injection, schedule: Q01DX001 (ip), vehicle: saline): 109 % of control and 120 % of control
- T/C (dose: 0.2 mg/kg/injection, schedule: Q01DX009 (ip), vehicle: saline): 121 % of control
- T/C (dose: 0.25 mg/kg/injection, schedule: Q01DX001 (ip), vehicle: saline): 103 % of control
- T/C (dose: 0.25 mg/kg/injection, schedule: Q01DX005 (ip), vehicle: saline): 115 % of control
- T/C (dose: 0.25 mg/kg/injection, schedule: Q01DX006 (iv), vehicle: saline): 119 % of control
- T/C (dose: 0.25 mg/kg/injection, schedule: Q01DX009 (sc), vehicle: saline): 123 % of control
- T/C (dose: 0.25 mg/kg/injection, schedule: Q01DX Z (ip), vehicle: carboxymethylcellulose (CMC)): 119 % of control
- T/C (dose: 0.25 mg/kg/injection, schedule: Q01DX Z (sc), vehicle: saline): 124 % of control
- T/C (dose: 0.48 mg/kg/injection, schedule: Q## X008 (ip), vehicle: saline): 110 % of control
- T/C (dose: 0.48 mg/kg/injection, schedule: Q## X016 (ip), vehicle: saline): 103 % of control
- T/C (dose: 0.48 mg/kg/injection, schedule: Q## X024 (ip), vehicle: saline): 107 % of control
- T/C (dose: 0.5 mg/kg/injection, schedule: Q01DX001 (ip), vehicle: saline): 107 % of control
- T/C (dose: 0.5 mg/kg/injection, schedule: Q01DX001 (sc), vehicle: saline): 112 % of control
- T/C (dose: 0.5 mg/kg/injection, schedule: Q01DX006 (iv), vehicle: saline): 150 % of control
- T/C (dose: 0.5 mg/kg/injection, schedule: Q01DX009 (oral), vehicle: saline): 107 % of control
- T/C (dose: 0.5 mg/kg/injection, schedule: Q01DX010 (oral), vehicle: carboxymethylcellulose (CMC)): 164 % of control
- T/C (dose: 0.5 mg/kg/injection, schedule: Q01DX Z (im), vehicle: saline): 156 % of control
- T/C (dose: 0.5 mg/kg/injection, schedule: Q04DX003 (ip), vehicle: Klucel (hydroxypropylcellulose) (HPC)): 117 % of control
- T/C (dose: 0.5 mg/kg/injection, schedule: Q## X002 (ip), vehicle: saline): 109 % of control
- T/C (dose: 0.5 mg/kg/injection, schedule: Q## X003 (ip), vehicle: saline): 110 % of control and 115 % of control
- T/C (dose: 0.5 mg/kg/injection, schedule: Q## X006 (ip), vehicle: saline): 107 % of control
- T/C (dose: 0.5 mg/kg/injection, schedule: Q## X024 (ip), vehicle: saline): 102 % of control
- T/C (dose: 0.5 mg/kg/injection, schedule: Q#A X Z (ip), vehicle: saline): 151 % of control
- T/C (dose: 0.67 mg/kg/injection, schedule: Q01DX005 (ip), vehicle: saline): 153 % of control and 158 % of control
- T/C (dose: 0.7 mg/kg/injection, schedule: Q01DX001 (ip), vehicle: saline): 103 % of control and 105 % of control
- T/C (dose: 0.8 mg/kg/injection, schedule: Q01DX009 (ip), vehicle: saline): 115 % of control
- T/C (dose: 0.86 mg/kg/injection, schedule: Q01DX001 (ip), vehicle: saline): 159 % of control
- T/C (dose: 0.96 mg/kg/injection, schedule: Q## X008 (ip), vehicle: saline): 106 % of control
- T/C (dose: 0.96 mg/kg/injection, schedule: Q## X016 (ip), vehicle: saline): 111 % of control
- T/C (dose: 1.0 mg/kg/injection, schedule: Q01DX001 (sc), vehicle: saline): 115 % of control
- T/C (dose: 1.0 mg/kg/injection, schedule: Q01DX006 (iv), vehicle: saline): 114 % of control
